Common to all, as to format: cell-based
Data set [1] concerns exsheathed third-stage larvae (xL3) of Haemonchus contortus. Kind of data set: Primary phenotypic screen on xL3s at 20 µM (video recording, 72 h). The settings on record: for proportion of xL3s exhibiting the phenotype in the primary screen: 72 h, visual inspection of video recordings; for phenotype induced in xL3s in the primary screen: 72 h of exposure. The protocol:
A library containing 245 compounds (Supplementary Table S1) was curated by the authors (T.K. and B.L.) at the Institute of Pharmaceutical and Medicinal Chemistry, Heinrich-Heine-University Düsseldorf, Germany. Individual compounds were dissolved in 100% high-performance liquid chromatography-grade dimethyl sulfoxide (DMSO; Merck, USA) to achieve stock concentrations of 20 mM. For screening, individual compounds were diluted further to the final concentration of 20 µM in Luria Bertani broth (LB) supplemented with 100 U/mL of penicillin, 100 μg/mL of streptomycin and 0.25 μg/mL of amphotericin B (designated LB*), and tested for activity in vitro against H. contortus.
(§1) Haemonchus contortus (Haecon-5 strain) was maintained in experimental sheep, in accordance with institutional animal ethics approval (permit no. 1714374; The University of Melbourne). Helminth-free Merino sheep (male; eight months of age) were inoculated orally with 7000 third-stage larvae (L3s) of H. contortus. Faecal samples containing H. contortus eggs were collected every day from 21 days following inoculation. These samples were incubated at 27 °C for one week to produce L3s, which were harvested and sieved through two layers of nylon mesh ([…] pore size; Rowe Scientific, Australia) to remove debris and dead larvae, and then stored at 11 °C for up to 6 months until use. To produce exsheathed third-stage larvae (xL3s) for in vitro assays, L3s were incubated in 0.15% (v/v) sodium hypochlorite for 20 min at 37 °C followed by five washes in 0.9% sterile saline by centrifugation at 600× g (5 min) at room temperature (22–24 °C).
Compounds were screened at 20 μM on H. contortus xL3s using an established assay. In brief, diluted test-compounds, negative controls (LB* + 0.5% DMSO) and two positive controls [20 μM of monepantel (Zolvix, Novartis Animal Health, Switzerland) and 20 μM of moxidectin (Cydectin, Virbac, France)] were added to wells of the 96-well microtiter plates (Corning, USA), and xL3s were dispensed at ~300/well to a final volume of 100 µL. Following a 72 h-incubation at 38 °C and 10% (v/v) CO2 at >90% humidity, a video recording (5 s) was taken of each well of the 96-well microtitre plate containing xL3s using a gray–scale camera (Rolera Bolt Scientific CMOS, Teledyne QImaging, Tucson, AZ, USA) and a motorised X–Y axis stage (BioPoint 2, Ludl Electronics Products, Hawthorne, CA, USA) attached to a stereomicroscope (SZ61, Olympus, Shinjuku, Japan). Primary screening was performed in duplicate. A compound was recorded as having activity if it altered worm morphology (phenotype) after 72 h of incubation.

Data set [2] in a line: Toxicity on HepG2 cells (crystal violet staining). The settings on record: HepG2 human hepatoma cells. The protocol:
HepG2 human hepatoma cells were seeded into wells of a 96-well microtitre plate in 80 µL of Dulbecco’s modified eagle medium (DMEM), supplemented with 10% foetal bovine serum, 100 U/mL of penicillin, 100 µg/mL of streptomycin and 0.25 µg/mL of amphotericin B (DMEM*) at a density of 1 × 10^5 cells per well. Cells were allowed to adhere for 16 h at 37 °C and 5% (v/v) CO2 at >90% humidity, and incubated with individual, serially-diluted compounds (7-points, 2-fold dilution in DMEM*, from 100 µM to 1.56 µM) in a final volume of 100 µL. Doxorubicin (10 µM) and DMEM* + 0.25% DMSO (vehicle), serving as positive and negative controls, respectively, were added to the individual 96-well plates. Monepantel and moxidectin were also serially diluted—prepared in the same manner as active compounds—and used as ‘negative’ reference controls. After 48 h of incubation, cellular viability was determined by the crystal violet staining assay. The absorbance at 595 nm of treated cells was compared with that of the controls (exposed only to the vehicle, with 100% viability). Compounds and controls were tested in triplicate. To determine the half cytotoxic concentration (CC50) values, compound concentrations were log10-transformed, fitted using a variable slope four-parameter equation with a least squares (ordinary) fit model employing GraphPad Prism (v. 9.0.2) software.

Data set [3] concerns exsheathed third-stage larvae (xL3) of Haemonchus contortus. Nature of the data set: Dose-response assay, inhibition of larval motility. The settings on record: for xL3 Motility (72 h) Inhibition (%): concentration not given; for IC50: Haemonchus contortus, 72 h incubation, mean ± SEM, three independent experiments in triplicate. The protocol:
as §1
Three compounds (designated MPK18, MPK334 and YAK308) shown to have activity against H. contortus in the primary screen were evaluated for their potency by estimating their half maximal inhibitory concentrations (IC50), calculated in a dose-response assay. In brief, compounds were titrated (18-points, 2-fold serial dilution in 50 μL of LB*, 100 µM down to 0.76 nM), in 96-well microtitre plates and xL3s were dispensed in 50 µL at a density of ~300 per well. All plates were incubated at 38 °C and 10% (v/v) CO2 with >90% humidity. After 72 h of incubation, a video recording (5 s) was taken of each well in the same camera settings as the primary screen (see Section 3.3), and larval motility measured. The motility index (Mi) was calculated from video data using the unique algorithm written in a custom macro, and analysed through the program ImageJ (v.2.0.0, Fiji). Mi data were normalised to a percentage compared with negative control (LB* + 0.5% DMSO). Monepantel and moxidectin were diluted in the same manner, and used as positive control compounds. Assays were performed in triplicate, three times, on separate days. To establish IC50 values, compound concentrations were log10-transformed, fitted using a variable slope four-parameter equation, constraining the maximum value to 100% using a least squares (ordinary) fit model employing GraphPad Prism (v. 9.0.2) software.

Data set [4] deals with exsheathed third-stage larvae (xL3) / fourth-stage larvae (L4) of Haemonchus contortus. Nature of the data set: Dose-response assay, inhibition of larval development (xL3 to L4) and phenotype over 7 days. The settings on record: seven days; for proportion of larvae exhibiting the phenotype at 100 µM / phenotype of larvae after exposure for 7 days: 100 µM; for phenotype of larvae after exposure for 7 days: xL3s/L4s; for IC50: Haemonchus contortus, 168 h. The protocol: as §1
Following the measurement of larval motility at 72 h, plates containing xL3s were incubated for four more days at 38 °C [10% (v/v) CO2 and >90% relative humidity] to test the active compounds (MPK18, MPK334 and YAK308) for their effect on the larval development over 7 days. Subsequently, worms were fixed in 1% iodine, and the rate of larval development was assessed microscopically appraising the presence (L4) or absence (xL3) of mouth and pharynx, and direct comparison with negative (untreated) controls (LB* + 0.5% DMSO). Thirty worms from each well were examined at 50-times magnification, and the number of L4s was expressed as a percentage of the total number. Assays were performed in triplicate, three times, on separate days. To establish IC50 values, compound concentrations were log10-transformed, fitted using a variable slope four-parameter equation with constraining the top value to 100% using a least squares (ordinary) fit model using GraphPad Prism (v. 9.0.2) software.

The mark [5] stands for this setting: mean ± SEM, read-out: L4 Development (7 days) IC50 ± SEM.

This note sets out measurements from paper PMC8126080, “Three Small Molecule Entities (MPK18, MPK334 and YAK308) with Activity against Haemonchus contortus In Vitro” (Molecules, 2021).

SMILES strings stand for the structures. “Also recorded” adds a separate entry of the source. Like-named read-outs stand apart in the source and are kept apart here.

Usually CC50 stands for the concentration that lowers cell viability or growth by half. For `O=C(/C=C/c1ccccc1)c1ccc(Br)cc1O` [MPK334], in data set [1], the “proportion of xL3s exhibiting the phenotype in the primary screen” value (“proportion … in the primary screen” for short) is listed as ~ 50% and the “phenotype induced in xL3s in the primary screen” value (“phenotype induced in xL3s” for short) is “coiled”. In data set [2], this compound returned a cytotoxic concentration (CC50) at 48 h of more than 100 µM. In data set [3], the “xL3 Motility (72 h) Inhibition (%)” value is recorded as 74.2% and the IC50 is 17.1 ± 4.2 µM. In data set [4], the “proportion of larvae exhibiting the phenotype at 100 µM” value was 100% and the “phenotype of larvae after exposure for 7 days” value (“phenotype of larvae” for short) was “curved”. Besides, the IC50 in data set [4] (setting [5]) was found to be 12.3 ± 2.3 µM.

For `Cc1ccc(/C=C/C(=O)NOCc2ccccc2)cc1` [MPK18], in data set [1], the “proportion … in the primary screen” value is given as ~ 50% and the “phenotype induced in xL3s” value is given as “coiled”. Further, the CC50 at 48 h in data set [2] was more than 100 µM. Also, in data set [3], the “xL3 Motility (72 h) Inhibition (%)” value is recorded as 30.0% and the IC50 amounted to 45.2 ± 4.6 µM. For the same compound, the “phenotype of larvae” value in data set [4] is recorded as “not observed; also recorded: Wild type”. Besides, the IC50 in data set [4] (read-out: concentration at which active on larval development (IC50 not determined)) was more than 25 µM.

On to `COc1cc(OC)cc(C(=O)Nc2nc(-c3ccccc3)cs2)c1` [YAK308], for which, in data set [1], the “proportion … in the primary screen” value was ~ 90% and the “phenotype induced in xL3s” value is recorded as “curved”. Also, the “phenotype induced in xL3s” value in data set [1] (listed as YAK 308) was “Curved”. In addition, the half-maximal cytotoxic concentration (CC50) at 48 h in data set [2] is more than 100 µM. Moreover, in data set [3], the “xL3 Motility (72 h) Inhibition (%)” value is on record as 34.6% and the IC50 came to 52.7 ± 6.7 µM. In data set [4], the “proportion of larvae exhibiting the phenotype at 100 µM” value turned out to be 22%; the “phenotype of larvae” value is “evisceration and evi”. Further, the IC50 in data set [4] (setting [5]) is 6.5 ± 1.6 µM.

As for `C[C@](C#N)(COc1cc(C#N)ccc1C(F)(F)F)NC(=O)c1ccc(SC(F)(F)F)cc1` [Monepantel, monepantel, reference compound], the “phenotype induced in xL3s” value in data set [1] is listed as “Coiled”. This compound also registered a CC50 at 48 h in data set [2] of more than 100 µM. Also, in data set [3], the “xL3 Motility (72 h) Inhibition (%)” value was 90.3% and the IC50 worked out at 0.6 ± 0.1 µM. For the same compound, the IC50 in data set [4] (setting [5]) amounted to 0.4 ± 0.05 µM.

Regarding `CO/N=C1\C[C@]2(C[C@@H]3C[C@@H](C/C=C(\C)C[C@@H](C)/C=C/C=C4\CO[C@@H]5[C@H](O)C(C)=C[C@@H](C(=O)O3)[C@]45O)O2)O[C@H](/C(C)=C/C(C)C)[C@H]1C` [Moxidectin, moxidectin, reference compound], the “phenotype induced in xL3s” value in data set [1] was “Relaxed”. This compound showed a CC50 at 48 h in data set [2] of more than 100 µM. The “xL3 Motility (72 h) Inhibition (%)” value in data set [3] came to 85.1%. The IC50 in data set [3] came out at 0.8 ± 0.2 µM; in data set [4] (setting [5]), 12.4 ± 0.1 µM.
